{"source": "paper PMC10384782", "about": "“New Phenolic Lipids from the Leaves of Clausena harmandiana Inhibit SARS-CoV-2 Entry into Host Cells” (Molecules, 2023)", "key": {"HCoV-229E [1]": {"test_system": "HCoV-229E", "experiment": "Time-of-drug addition assay in HCoV-229E-Luc-infected Huh7 cells", "type": "cell-based", "settings": "2 and 3 at 0.2 µM; for inhibition of infection when present during the virus entry step: Q3G 25 µM, co-added with virus for 1 h; for inhibition of infection when added after virus inoculation (replication step): Remdesivir 0.1 µM, luciferase activity"}, "HCoV-229E [2]": {"test_system": "HCoV-229E", "experiment": "HCoV-229E-Luc infection inhibition assay (fractions and pure compounds) in Huh7 cells", "type": "cell-based", "settings": "for IC50: Human coronavirus 229E, Huh-7, 12 h, read-out: IC50 (concentration inhibited infection by 50%)"}, "SARS-CoV-2 [3]": {"test_system": "SARS-CoV-2", "experiment": "microbe, parasite or virus in culture", "type": "cell-based", "settings": "for selectivity index (SI): SARS-CoV-2, Vero-E6 cells; for IC50: Severe acute respiratory syndrome coronavirus 2, Vero C1008, 48 h, read-out: IC50 against SARS-CoV-2"}, "HCoV-229E [4]": {"test_system": "HCoV-229E", "experiment": "microbe, parasite or virus in culture", "type": "cell-based", "settings": "Human coronavirus 229E, Huh-7; read-out: inhibition of infection after pre-incubation of virus particles"}, "SARS-CoV-2 [5]": {"test_system": "SARS-CoV-2", "type": "cell-based"}, "in vitro [6]": {"experiment": "in vitro", "settings": "human"}, "in vitro [7]": {"experiment": "in vitro", "settings": "African green monkey"}}, "note": "Entries after “also recorded” stand apart in the source; their conditions may differ."}
{"smiles": "O=c1c(O[C@@H]2O[C@H](CO)[C@@H](O)[C@H](O)[C@H]2O)c(-c2ccc(O)c(O)c2)oc2cc(O)cc(O)c12", "note": "[Compound Q3G, Isoquercitrin, reference compound]", "values": [{"measurement": "inhibition of infection when present during the virus entry step", "setting": "HCoV-229E [1]", "result": "strong inhibition of infection"}]}
{"smiles": "CCCCC=CCCCCCCCCCCCC(O)Cc1cc(O)ccc1O", "note": "(stereo not drawn) [Compound 2, (2′R)-2-[(14′Z)-2′-hydroxynonadec-14′-en-1′-yl]benzene-1,4-diol]", "values": [{"measurement": "SI, selectivity index (CC50/IC50)", "setting": "HCoV-229E [2]", "result": 5}, {"measurement": "effect on HCoV-229E-Luc infection at 0.01 µM without pre-incubation", "setting": "HCoV-229E [2]; Huh7 cells", "result": "does not inhibit"}, {"measurement": "IC50", "setting": "HCoV-229E [2]", "result": "0.1 ± 0.03", "unit": "µM"}, {"measurement": "selectivity index (SI)", "setting": "SARS-CoV-2 [3]", "result": 2.5}, {"measurement": "IC50", "setting": "SARS-CoV-2 [3]", "result": 0.2, "unit": "µM"}, {"measurement": "inhibition of infection when present during the virus entry step", "setting": "HCoV-229E [1]", "result": "strong inhibition of infection"}, {"measurement": "inhibition of infection when added after virus inoculation (replication step)", "setting": "HCoV-229E [1]", "result": "no inhibition of infection"}, {"measurement": "inhibition at 0.2 µM", "setting": "HCoV-229E [4]", "result": "≤ 60", "unit": "%"}, {"measurement": "decrease of viral progeny (residual infectivity)", "setting": "SARS-CoV-2 [5]", "result": "up to 1 log"}, {"measurement": "CC50", "setting": "in vitro [6]", "result": "0.5 ± 0.05", "unit": "µM"}, {"measurement": "CC50", "setting": "in vitro [7]", "result": "0.5 ± 0.08", "unit": "µM"}]}
{"smiles": "CCC(CC)COC(=O)[C@H](C)N[P@](=O)(OC[C@H]1O[C@@](C#N)(c2ccc3c(N)ncnn23)[C@H](O)[C@@H]1O)Oc1ccccc1", "note": "[Remdesivir, reference compound]", "values": [{"measurement": "inhibition of infection when added after virus inoculation (replication step)", "setting": "HCoV-229E [1]", "result": "strongly inhibited viral replication"}]}
{"smiles": "CCCCCCCCCCCCCCCC[C@@H](O)Cc1cc(O)ccc1O", "note": "[Compound 3, (2′R)-(2-(2-hydroxyoctadecyl)benzene-1,4-diol)]", "values": [{"measurement": "SI, selectivity index (CC50/IC50)", "setting": "HCoV-229E [2]", "result": 16}, {"measurement": "effect on HCoV-229E-Luc infection at 0.01 µM without pre-incubation", "setting": "HCoV-229E [2]; Huh7 cells", "result": "does not inhibit"}, {"measurement": "IC50", "setting": "HCoV-229E [2]", "result": "0.05 ± 0.04", "unit": "µM"}, {"measurement": "selectivity index (SI)", "setting": "SARS-CoV-2 [3]", "result": 18}, {"measurement": "IC50", "setting": "SARS-CoV-2 [3]", "result": 0.05, "unit": "µM"}, {"measurement": "inhibition of infection when present during the virus entry step", "setting": "HCoV-229E [1]", "result": "strong inhibition of infection"}, {"measurement": "inhibition of infection when added after virus inoculation (replication step)", "setting": "HCoV-229E [1]", "result": "no inhibition of infection"}, {"measurement": "inhibition at 0.2 µM", "setting": "HCoV-229E [4]", "result": "≤ 80", "unit": "%"}, {"measurement": "CC50", "setting": "in vitro [6]", "result": "0.8 ± 0.1", "unit": "µM"}, {"measurement": "CC50", "setting": "in vitro [7]", "result": "0.9 ± 0.2", "unit": "µM"}]}
{"smiles": "CCCC=CCCCCCCCCCCCC(O)Cc1cc(O)ccc1O", "note": "(stereo not drawn) [Compound 1, (2′. R)-2-[(14′Z)-2′-Hydroxyoctadec-14′-en-1′-yl]benzene-1,4-diol]", "values": [{"measurement": "antiviral activity against HCoV-229E (in words)", "setting": "HCoV-229E [2]; non-cytotoxic doses (up to 0.25 µM), Huh7 cells", "result": "no antiviral effect; also recorded: no antiviral activity"}, {"measurement": "antiviral activity against SARS-CoV-2 (in words)", "setting": "SARS-CoV-2 [3]; Vero-E6 cells, non-cytotoxic concentrations", "result": "no antiviral activity"}, {"measurement": "CC50", "setting": "in vitro [6]", "result": "1.3 ± 0.1", "unit": "µM"}, {"measurement": "CC50", "setting": "in vitro [7]", "result": "1.5 ± 0.2", "unit": "µM"}]}
